Tested on: Streptococcus faecalis
Assay: In vitro antibacterial activity against eleven strains of Streptococcus faecalis (agar dilution method; tube dilution per footnote)
Type: cell-based
Conditions: Enterococcus faecalis, geometric mean against eleven strains of Streptococcus faecalis
Text: […] faecalis is classified as a species of Group D β-hemolytic streptococci, also known as enterococci. Infections caused by Group D β-hemolytic streptococci, in particular […] faecalis, are generally known to be resistant to cephalosporin antibiotics. The infections caused by Group D streptococci commonly involve the endocardium (endocarditis), the urinary tract, the intestines, the biliary tract, postoperative wounds, and interabdominal abscesses. Endocarditis is clinically a very important disease and is frequently difficult to treat by antibiotic therapy. The disease is commonly treated by infusion of penicillin G in combination with streptomycin or vancomycin. […] The results are shown in Table 1 where the activity is measured by the MIC values, defined as the concentration of the compound capable of inhibiting the growth of the test organism. |In Vitro Antibacterial Activity Against Eleven |Strains of Streptococcus faecalis | *Geometric mean MIC as determined by the tube dilution method against | eleven strains of Streptococcus faecalis.

| Compound | MIC [µg/mL] |
| --- | --- |
| CC(=O)OCC1=C(C(=O)O)N2C(=O)C(NC(=O)CSc3cc(Cl)ccc3Cl)C2SC1 (stereo not drawn) | 2 |
| Cc1nnc(SCC2=C(C(=O)O)N3C(=O)C(NC(=O)CSc4cc(Cl)ccc4Cl)C3SC2)o1 (stereo not drawn) | 2.13 |
| Cn1nnnc1SCC1=C(C(=O)O)N2C(=O)C(NC(=O)CSc3cc(Cl)ccc3Cl)C2SC1 (stereo not drawn) | 3.11 |
| Cn1c(SCC2=C(C(=O)O)N3C(=O)C(NC(=O)CSc4cc(Cl)ccc4Cl)C3SC2)nnc(O)c1=O (stereo not drawn) | 3.76 |
| Nc1nnc(SCC2=C(C(=O)O)N3C(=O)C(NC(=O)CSc4cc(Cl)ccc4Cl)C3SC2)s1 (stereo not drawn) | 4.26 |
| Cn1nnnc1SCC1=C(C(=O)O)N2C(=O)C(NC(=O)CSc3ccc(Cl)c(Cl)c3)C2SC1 (stereo not drawn) | 4.83 |
| O=C(CSc1cc(Cl)ccc1Cl)NC1C(=O)N2C(C(=O)O)=C(CO)CS[C@H]12 (stereo partly drawn) [OH, 7-[2-[(2,5-Dichlorophenyl)thio]acetamido]-3-hydroxymethyl-3-cephem-4-carboxylic acid] | 3.11 |

The next compounds have a lower MIC than those just listed; values first:

| MIC [µg/mL] | Compound |
| --- | --- |
| 1.29 | Cc1nnc(SCC2=C(C(=O)O)N3C(=O)C(NC(=O)CSc4cc(Cl)ccc4Cl)C3SC2)s1 (stereo not drawn) |
| 1.37 | O=C(CSc1cc(Cl)ccc1Cl)NC1C(=O)N2C(C(=O)O)=C(CSc3cnsn3)CSC12 (stereo not drawn) |
| 1.88 | Cc1nsc(SCC2=C(C(=O)O)N3C(=O)C(NC(=O)CSc4cc(Cl)ccc4Cl)C3SC2)n1 (stereo not drawn) |
| 1.88 | O=C(CSc1cc(Cl)ccc1Cl)NC1C(=O)N2C(C(=O)O)=C(CSc3ncco3)CSC12 (stereo not drawn) |
| 1.76 | Cc1nnc(SCC2=C(C(=O)O)N3C(=O)C(NC(=O)CSc4ccc(Cl)c(Cl)c4)C3SC2)s1 (stereo not drawn) |

— patent US4311837A, “Certain heterocyclic thiomethyl derivatives of 7-(dihalogenated phenylthioacetamido)cephalosporanic acids useful in the treatment of infections caused by _Streptococcus faecalis” (Eli Lilly and Company, priority 1980, dated 1982)
